This note sets out measurements from patent US8802414B2, “Methods and materials for reducing biofilms” (priority 2007, dated 2014).

In experiment [1] the test system is S. aureus SA113. The experiment is described as follows: Microtiter plate biofilm formation assay. In kind it is cell-based, Staphylococcus aureus. As for the experimental part:
(§1) Bacteria stored at −70° C. were freshly streaked on sheep's blood agar or trypticase soy agar before each replicate experiment. For microtiter plate biofilm formation and detachment assays, immunodetection assays, and confocal microscopy assays (unless stated otherwise), isolated colonies from 16 to 24 hour-old plates were grown in trypticase soy broth (BD BBL, Franklin Lakes, N.J.) supplemented with 1% (w/v) sterile-filtered glucose (TSBgluc1%) with shaking at 130 rpm for 22-24 hours. Unless otherwise noted, all experiments were incubated in ambient air at 37° C.
(§2) Biofilm formation was assayed using a microtiter plate assay as described elsewhere (Christensen et al., J. Clin. Microbiol., 22:996-1006 (1985)), with modifications as described elsewhere (Chaignon et al., Appl. Microbiol. Biotechnol., 75(1):125-132 (2007) and Frank and Patel, Diagn. Microbiol. Infect. Dis., 57:355-359 (2007)). Briefly, cultures were adjusted with TSBgluac1% to match the turbidity of a 1.0 McFarland standard (˜1-2×10^8 cfu/mL) and diluted 1:50 in TSBgluc1% or TSBgluc1% containing various concentrations of sodium chloride (1-5%, w/v) or ethanol (0.5-4%, v/v). For experiments examining the effect of glucose concentration on biofilm formation, bacteria were grown overnight, adjusted to 1.0 McFarland, and diluted in TSB containing the corresponding amount of glucose being tested (0.5-5%, w/v). 200 μL aliquots of each diluted culture were placed into four wells of 96-well microtiter plates (Nuclon Delta, Nalge Nunc International, Rochester, N.Y.), and incubated for 24 hours. Cell growth was measured by reading the OD600 nm on a microplate reader (Multiskan, Thermo Electron, Waltham, Mass.). Culture media was discarded, and wells were washed twice by fully submerging plates in deionized water to remove non-adherent cells and allowed to air-dry overnight. Biofilms remaining in the wells were stained with 0.1% safranin for 1 minute, rinsed under running tap water to remove excess stain, and air-dried overnight. In order to ensure homogeneity among stained material in the wells, stained biofilms were resuspended in 200 μL of 30 percent glacial acetic acid, and the OD492 nm was measured.

In experiment [2] the test system is S. lugdunensis clinical isolates. The experiment is described as follows: Microtiter plate biofilm formation assay. In kind it is cell-based, Staphylococcus lugdunensis. As for the experimental part: as §1, §2
For experiment [3], the system named is S. epidermidis RP62A. The experiment in a line: Microtiter plate biofilm formation assay. In kind it is cell-based, Staphylococcus epidermidis. Here is the method:
as §1, §2

The subject of experiment [4] is pre-formed biofilms of S. epidermidis RP62A. The experiment is described as follows: Microtiter plate biofilm detachment assay. In kind it is cell-based, Staphylococcus epidermidis. The note with it: 2 hours at 37° C.; safranin OD492.
The test system of experiment [5] is pre-formed S. lugdunensis biofilms. The experiment in a line: Microtiter plate biofilm detachment assay. The class given is cell-based, Staphylococcus lugdunensis. As for the experimental part:
40 mM sodium metaperiodate (NaIO4, Sigma-Aldrich) in water, 40 μg/mL purified recombinant dispersin B (obtained from Kane Biotech Inc., Winnipeg, Manitoba, Canada) in sodium phosphate buffer (50 mM sodium phosphate (pH 5.8), 100 mM NaCl), 100 μg/mL proteinase K (Roche Applied Science) in 10 mM Tris-HCl pH 7.5, 10 U/mL trypsin (Promega Corp., Madison, Wis.) in 10 mM Tris-HCl pH 7.5, 100 μg/mL chymotrypsin (Sigma-Aldrich) in 10 mM Tris-HCl pH 7.5, and 100 μg/mL thermolysin (Sigma-Aldrich) in 10 mM Tris-HCl pH 7.5 were tested for their ability to detach pre-formed S. lugdunensis biofilms from polystyrene microtiter plate wells. For certain experiments, proteinase K was inactivated by boiling for 40 minutes.
Biofilms grown in TSBgluc1% were formed in wells of microtiter plates and washed twice with deionized water, as described above for the microtiter plate biofilm formation assay. 100 μL of NaIO4, enzyme, or suitable control was carefully added so as not to mechanically detach biofilms on the bottoms of wells. Plates were incubated at 37° C. for 2 hours, and contents of wells were discarded and washed twice with deionized water. Plates were air-dried overnight, stained with 0.1% safranin for 1 minute, and processed as described above to quantify the amount of stained biofilm remaining after treatment, relative to treatment with the control reagent. Four wells were measured for each treatment condition. Assays were repeated two or three times on separate days with similar results.

The test system of experiment [6] is pre-formed biofilms of S. carnosus TM300+pCN27. The experiment in a line: Microtiter plate biofilm detachment assay. In kind it is cell-based, Staphylococcus carnosus. The following applies: 2 hours at 37° C.; safranin OD492.
Setting [7] is: increasing ethanol concentrations (0.5-4% v/v) in TSBgluc1%.
Where [8] appears, read: increasing salt concentrations (1-5% sodium chloride).
[9] abbreviates: 2 hours at 37° C., safranin OD492, 15 clinical isolates.

“Also recorded” adds a separate entry of the source.

With `CCO` [ethanol], the biofilm production entry in experiment [1] (setting [7]) and in experiment [3] (setting [7]) was “significant reductions in biofilm production” each time. Moreover, the adherence result in experiment [2] (2% ethanol, all S. lugdunensis that formed measurable baseline biofilms) was “prevent the adherence”. The “killing / growth of isolates” value in experiment [2] (2% ethanol, isolates IDRL-2554, IDRL-2640 and IDRL-5254 only) is “killed; also recorded: inhibited growth”. The killing of bacteria entry in experiment [2] (4% ethanol, all S. lugdunensis isolates) was “bactericidal”. The “levels of biofilm production” value in experiment [2] (most ethanol concentrations, isolates with baseline biofilm OD492 >=0.150) is “reduced the levels of biofilm production”.
With `[Cl-].[Na+]` [sodium chloride], the “biofilm compared to baseline biofilm formation” value was “significantly reduced, yet still discernable” in experiment [1] (5% sodium chloride) and “not affected” in experiment [3] (5% sodium chloride). Further, the biofilm levels entry in experiment [1] (TSBgluc1% with 1-2% sodium chloride) and in experiment [3] (TSBgluc1% with 1-3% sodium chloride) was “increase” in each case. Besides, the “growth (optical density of the biomass in each well)” value in experiment [1] (setting [8]), in experiment [2] (setting [8]) and in experiment [3] (setting [8]) was “not affected” in each case. For the same compound, in experiment [2] (5% sodium chloride), the biofilm formation result was “Essentially no measurable quantity of biofilm could be detected”. The “S. lugdunensis isolates that formed more biofilm” value in experiment [2] (TSBgluc1% containing 1 or 2% sodium chloride, 11/15 isolates) is recorded as 73%. For the same compound, the “adherence to microtiter wells” value in experiment [2] (higher concentrations of salt (above 2% sodium chloride)) was “substantially reduced”.
Turning to `[Na+].[O-][I+3]([O-])([O-])[O-]` [sodium metaperiodate], the “biofilm detachment compared to buffer” value in experiment [4] is on record as “substantial detachment”; in experiment [5] (seven isolates IDRL-2394, IDRL-2526, IDRL-2554, IDRL-2588, IDRL-2622, IDRL-2640, IDRL-5258, 40 mM, 2 hours) it was “greater susceptibility”; in experiment [6], “essentially completely released”. The “S. lugdunensis biofilms on whose release there was moderate to little effect” value in experiment [5] (40 mM, 2 hours at 37° C., 8/15 isolates) is given as 53%.
As for chymotrypsin, the “biofilm detachment compared to buffer” value in experiment [5] (setting [9]) is “detach S. lugdunensis biofilms selectively”.
Regarding trypsin, the “biofilm detachment compared to buffer” value in experiment [4], in experiment [5] (setting [9]) and in experiment [6] was “Concordant results” each time. In addition, the biofilm release entry in experiment [5] (isolates IDRL-2414 and IDRL-2526, 10 U/mL, 2 hours at 37° C.) is “noticeably more resistant to release”.
